Results on three molecules are retold here after ChEMBL document CHEMBL1124431, “Preparation and antitumor activity of additional mitomycin A analogues” (J Med Chem, 1989).

Data set [1] in a line: Partition coefficient (logP). It counts as physicochemical. The conditions noted are these: octanol/water.
The species named for data set [2] is Mus musculus. Description: log(1/C) was estimated in mice. It counts as organism-based. The settings on record: in vivo.
Data set [3] concerns B16. Nature of the data set: Maximal effect of the given optimal dose of 0.4 mg/kg against B16 melanoma cells in mice. Also on record: dose 0.4 mg/kg. It counts as organism-based. The settings on record: mouse, in vivo.
Data set [4] concerns P388. Nature of the data set: Minimum effective dose was determined on P388 leukemia cells in mice. The conditions noted are these: for minimal effective dose: Mus musculus, P388, read-out: MED. It is filed as functional, Mus musculus.
The subject of data set [5] is P388. Nature of the data set: Maximal effect of the given optimal dose of 6.4 mg/kg against P388 leukemia cells in mice. It counts as functional, Mus musculus.
Data set [6] has as its system B16. Description: Maximal effect of the given optimal dose of 1.2 mg/kg against B16 melanoma in mice. It counts as functional, Mus musculus.
Data set [7] relates to B16. Description: Minimum effective dose was determined on B16 melanoma cells in mice. It counts as functional. The conditions noted are these: Mus musculus, read-out: MED.
The subject of data set [8] is P388. Nature of the data set: Maximal effect of the given optimal dose of 1.6 mg/kg against P388 leukemia cells in mice. It is filed as functional, Mus musculus.
Data set [9] deals with B16. Description: Maximal effect of the given optimal dose of 0.8 mg/kg against B16 melanoma in mice. It is filed as functional, Mus musculus.
For data set [10], the system named is P388. Nature of the data set: Maximal effect of the given optimal dose of 0.8 mg/kg against P388 leukemia cells in mice. It counts as functional, Mus musculus.

In general, logP refers to a log measure of how a compound divides between an organic and an aqueous phase. A higher logP goes with a more lipophilic compound. For orientation: T/C means the result in the treated group divided by that in the control group, in per cent.

In [1], `CO[C@@]12C(COC(N)=O)C3=C(C(=O)C(C)=C(OCCN4CCCC4)C3=O)N1CC1NC12` (stereo not given in full) returned a logP of 1.46. For the same molecule, the “Log 1/C” value in data set [2] is 6.94. In data set [3], this molecule came in with a T/C of 107%. Moreover, in data set [4], the MED turned out to be 1.13e-07 M/kg and the minimal effective dose is less than 0.1 mg/kg. For the same molecule, in data set [5], the T/C stood at 217%.

`CO[C@@]12C(COC(N)=O)C3=C(C(=O)C(C)=C(OC4COCOC4)C3=O)N1CC1NC12` (stereo not given in full): in [1], the logP is 0.31. Further, the “Log 1/C” value in [2] is recorded as 6.93. Besides, the T/C in data set [6] came out at 222%; in data set [8], 210%. For the same molecule, the minimal effective dose in data set [7] was less than 0.3 mg/kg; in [4], less than 0.1 mg/kg. The molecule also showed an MED in data set [4] of 1.18e-07 M/kg.

Regarding `COCC(O)COC1=C(C)C(=O)C2=C(C1=O)C(COC(N)=O)[C@@]1(OC)C3NC3CN21` (stereo not given in full), the logP in [1] is -0.59. The “Log 1/C” value in [2] is 6.94. Further, the minimal effective dose was 0.2 mg/kg in data set [7] and less than 0.1 mg/kg in [4]. Further, the T/C came to 211% in [9] and 222% in data set [10]. The MED in data set [4] amounted to 1.16e-07 M/kg.
